From patent US20240252693A1, “FOLATE RECEPTOR-TARGETED RADIOTHERAPEUTIC AGENTS AND THEIR USE” (Novartis AG, priority 2021, published 2024)
Several values for one entry are separate records, joined by “and”; a condition that tells them apart may be missing. Equal values may be shown once. *1 amine or outer side, *2 acyl side, *3 side chain or, on linkers, in order; H or OH if unused. Where a SMILES comes first, the peptide text is derived from it. [ ]: non-standard residue; d: D form. The star is where a group is joined. NH(1-deoxy-D-glucityl) = OC[C@@H](O)[C@@H](O)[C@H](O)[C@@H](O)CN*; DOTA = O=C(O)CN1CCN(CC(=O)O)CCN(CC(=O)*)CCN(CC(=O)O)CC1; Pteroyl = Nc1nc2ncc(CNc3ccc(C(=O)*)cc3)nc2c(=O)[nH]1; γGlu = O=C(O)[C@H](CCC(=O)[*:2])N[*:1]; βAsp = O=C(O)[C@H](CC(=O)[*:2])N[*:1]; Dap = NC[C@H](N)C(=O)O

tested on: KB tumor; assay: In vivo biodistribution in mice bearing KB tumors; conditions: 177Lu chelate, 200 nmol/kg

T/Kid | T/Liv | T/spl | T^2/kid | SMILES
0.16 +/− 0.01 | 6.8 +/− 1.1 | 50.7 +/− 24.0 | 0.64 +/− 0.19 | Nc1nc2ncc(CNc3ccc(C(=O)NCCCC[C@H](NC(=O)CNC(=O)CN4CCN(CC(=O)O)CCN(CC(=O)O)CCN(CC(=O)O)CC4)C(=O)O)cc3)nc2c(=O)[nH]1 [Compound 45, DOTA-Gly-Lys(Pte)-OH]
0.19 +/− 0.03 | 6.3 +/− 1.9 | 66.9 +/− 30.8 | 0.84 +/− 0.32 | Nc1nc2ncc(CNc3ccc(C(=O)NCCCC[C@H](NC(=O)CN4CCN(CC(=O)O)CCN(CC(=O)O)CCN(CC(=O)O)CC4)C(=O)O)cc3)nc2c(=O)[nH]1 [Compound 46, DOTA-Lys(Pte)-OH]
0.32 +/− 0.09 | 11.0 +/− 2.3 | 54.8 +/− 11.3 | 1.35 +/− 0.54 | Nc1nc2ncc(CNc3ccc(C(=O)N[C@@H](CC(=O)NCCCC[C@H](NC(=O)CNC(=O)CN4CCN(CC(=O)O)CCN(CC(=O)O)CCN(CC(=O)O)CC4)C(=O)O)C(=O)O)cc3)nc2c(=O)[nH]1 [Compound 51, Pte-Asp(DOTA-Gly-ε-Lys-OH)—OH]

same assay, conditions: 225Ac chelate, 30 nmol/kg

T/Kid | T/Liv | T/spl | SMILES
0.04 +/− 0.01 | 0.5 +/− 0.3 | 6.8 +/− 2.9 | Nc1nc2ncc(CNc3ccc(C(=O)N[C@@H](CNC(=O)CN4CCN(CC(=O)O)CCN(CC(=O)O)CCN(CC(=O)O)CC4)C(=O)O)cc3)nc2c(=O)[nH]1 [Compound 3]
0.09 +/− 0.02 | 3.5 +/− 1.9 | 19.9 +/− 10.9 | Nc1nc2ncc(CNc3ccc(C(=O)N[C@@H](CNC(=O)CCC(C(=O)O)N4CCN(CC(=O)O)CCN(CC(=O)O)CCN(CC(=O)O)CC4)C(=O)O)cc3)nc2c(=O)[nH]1 (some centres unmarked) [Compound 5]
0.07 +/− 0.03 | 3.3 +/− 1.8 | 15.8 +/− 5.9 | Nc1nc2ncc(CNc3ccc(C(=O)N[C@@H](CCC(=O)NC[C@H](N)C(=O)N[C@@H](CC(=O)O)C(=O)N[C@@H](CSC4CC(=O)N(CCNC(=O)CN5CCN(CC(=O)O)CCN(CC(=O)O)CCN(CC(=O)O)CC5)C4=O)C(=O)O)C(=O)O)cc3)nc2c(=O)[nH]1 (some centres unmarked) [Compound 25]
0.08 +/− 0.02 | 3.3 +/− 1.1 | 20.4 +/− 5.6 | Nc1nc2ncc(CNc3ccc(C(=O)N[C@@H](CCCCNC(=O)[C@H](Cc4ccc5ccccc5c4)NC(=O)[C@H]4CC[C@H](CNC(=O)CCC(C(=O)O)N5CCN(CC(=O)O)CCN(CC(=O)O)CCN(CC(=O)O)CC5)CC4)C(=O)O)cc3)nc2c(=O)[nH]1 (some centres unmarked) [Compound 26]

tested on: FR-positive M109 tumor; assay: In vivo biodistribution in mice bearing M109 tumors; conditions: 111In chelate, 100 nmol/kg
Description: Four- to eight-week-old female nu/nu mice or NSG mice (Harlan Sprague-Dawley, Inc.) were maintained on a standard 12-h light-dark cycle and fed ad libitum with Folate deficient purified rodent diet (TestDiet #AIN-93G) for the duration of the experiment. FR-positive M109 or FR-negative HT29 tumor cells were inoculated in the subcutis dorsal medial area of mice. The biodistribution studies were typically performed when tumors were approximately 400-800 mm^3 in volume. Mice were divided into groups of three, and freshly prepared test articles and competitors were injected through the lateral tail vein in a volume of 100 μL/10 g of PBS. Four h to six days post radioactive-agent dose administration, mice were euthanized and organs (blood, heart, lungs, liver, spleen, and kidneys, intestine, stomach, muscle, brain and tumor) were collected, weighed and placed inside counting vials. Each tissue sample was counted for the activities of radioelement using a gamma-counter. Samples of the injectate were used as decay correction standards. Final bar graphs are expressed as % injected dose per gram of tissue or tumor to kidney ratio, or % tumor to (kidneys+liver+spleen) ratio.

T/Kid | T/Liv | T/spl | T^2/kid | SMILES
0.19 +/− 0.01 | 5.7 +/− 1.5 | 28.0 +/− 31^ | 1.0 +/− 0.14 | Nc1nc2ncc(CNc3ccc(C(=O)N[C@@H](CC(=O)N[C@@H](CCC(=O)NC[C@H](O)[C@@H](O)[C@H](O)[C@H](O)CO)C(=O)N[C@@H](CCC(=O)NC[C@H](O)[C@@H](O)[C@H](O)[C@H](O)CO)C(=O)N[C@@H](CCC(=O)NC[C@H](O)[C@@H](O)[C@H](O)[C@H](O)CO)C(=O)N[C@@H](CNC(=O)CN4CCN(CC(=O)O)CCN(CC(=O)O)CCN(CC(=O)O)CC4)C(=O)O)C(=O)O)cc3)nc2c(=O)[nH]1 [Compound 11] ({Pteroyl-βAsp}-E(NH(1-deoxy-D-glucityl))E(NH(1-deoxy-D-glucityl))E(NH(1-deoxy-D-glucityl))[Dap](DOTA)-OH)
0.22 +/− 0.06 | 6.4 +/− 1.5 | 31.9 +/− 7.6 | 1.7 +/− 1.1 | Nc1nc2ncc(CNc3ccc(C(=O)N[C@@H](CCC(=O)N[C@@H](CCC(=O)NC[C@H](O)[C@@H](O)[C@H](O)[C@H](O)CO)C(=O)N[C@@H](CCC(=O)NC[C@H](O)[C@@H](O)[C@H](O)[C@H](O)CO)C(=O)N[C@@H](CCC(=O)NC[C@H](O)[C@@H](O)[C@H](O)[C@H](O)CO)C(=O)N[C@@H](CNC(=O)CN4CCN(CC(=O)O)CCN(CC(=O)O)CCN(CC(=O)O)CC4)C(=O)O)C(=O)O)cc3)nc2c(=O)[nH]1 [Compound 13] ({Pteroyl-γGlu}-E(NH(1-deoxy-D-glucityl))E(NH(1-deoxy-D-glucityl))E(NH(1-deoxy-D-glucityl))[Dap](DOTA)-OH)
0.098 +/− 0.003 | 1.2 +/− 0.1 | 2.1 +/− 0.3 | 0.03 +/− 0.001 | Nc1nc(O)c2nc(CNc3ccc(C(=O)N[C@@H](CCC(=O)NCCNC(=O)CCC(C(=O)O)N4CCN(CC(=O)O)CCN(CC(=O)O)CCN(CC(=O)O)CC4)C(=O)O)cc3)cnc2n1 (some centres unmarked) [Compound 28]

same assay, conditions: 177Lu chelate, 100 nmol/kg

T/Kid | T/Liv | T/spl | T^2/kid | SMILES
0.30 +/− 0.04 | 0.93 +/− 0.15 | 10.6 +/− 1.8 | 1.6 +/− 0.4 | Nc1nc2ncc(CNc3ccc(C(=O)N[C@@H](CNC(=O)CN4CCN(CC(=O)O)CCN(CC(=O)O)CCN(CC(=O)O)CC4)C(=O)O)cc3)nc2c(=O)[nH]1 [Compound 3]
0.21 +/− 0.01 | 4.6 +/− 2.1 | 16.4 +/− 1.9 | 1.5 +/− 0.3 | Nc1nc2ncc(CNc3ccc(C(=O)N[C@@H](CNC(=O)C[C@H](NC(=O)CN4CCN(CC(=O)O)CCN(CC(=O)O)CCN(CC(=O)O)CC4)C(=O)O)C(=O)O)cc3)nc2c(=O)[nH]1 [Compound 20]

SMILES | T/Kid | T/Liv | T/spl | T^2/kid
Nc1nc2ncc(CNc3ccc(C(=O)N[C@@H](CNC(=O)CCC(C(=O)O)N4CCN(CC(=O)O)CCN(CC(=O)O)CCN(CC(=O)O)CC4)C(=O)O)cc3)nc2c(=O)[nH]1 (some centres unmarked) [Compound 5] | 0.22 +/− 0.08 and 0.16 +/− 0.01 and 0.25 +/− 0.07 |  | 25.3 +/− 11.4 and 14.6 +/− 3.0 and 24.4 +/− 8.8 | 1.6 +/− 1.0 and 1.1 +/− 0.3 and 2.0 +/− 1.2

same assay, conditions: 177Lu chelate, 200 nmol/kg

T/Kid | T/Liv | T/spl | T^2/kid | SMILES
0.23 +/− 0.03 | 9.0 +/− 0.9 | 56.4 +/− 6.2 | 0.76 +/− 0.12 | CSCC[C@H](NC(=O)CN1CCN(CC(=O)O)CCN(CC(=O)O)CCN(CC(=O)O)CC1)C(=O)N[C@H](C(=O)N[C@@H](CCCCNC(=O)C[C@H](NC(=O)c1ccc(NCc2cnc3nc(N)[nH]c(=O)c3n2)cc1)C(=O)O)C(=O)O)C(C)C [Compound 54, Pte-Asp(DOTA-Met-Val-ε-Lys-OH)—OH]
0.29 +/− 0.08 | 10.1 +/− 3.2 | 55.6 +/− 17.1 | 1.37 +/− 0.73 | Nc1nc2ncc(CNc3ccc(C(=O)N[C@@H](CNC(=O)CNC(=O)CN4CCN(CC(=O)O)CCN(CC(=O)O)CCN(CC(=O)O)CC4)C(=O)O)cc3)nc2c(=O)[nH]1 [Compound 68, Pte-Dap(Gly-DOTA)-OH]

same assay, conditions: 177Lu chelate, 300 nmol/kg

T/Kid | T/Liv | T/spl | T^2/kid | SMILES
0.46 +/− 0.03 | 10.5 +/− 2.9 | 69.9 +/− 7.9 | 1.28 +/− 0.11 | Nc1nc2ncc(CNc3ccc(C(=O)N[C@@H](CCCCNC(=O)COc4ccc(C[C@H](NC(=O)CN5CCN(CC(=O)O)CCN(CC(=O)O)CCN(CC(=O)O)CC5)C(=O)O)cc4)C(=O)O)cc3)nc2c(=O)[nH]1 [Compound 38, Pte-Lys(DOTA-Tyr(O-carbonylmethyl)-OH)—OH]
0.57 +/− 0.22 | 17.1 +/− 6.4 | 83.8 +/− 29.7 | 1.68 +/− 0.59 | Nc1nc2ncc(CNc3ccc(C(=O)N[C@@H](CCCCNC(=O)COc4ccc(C[C@H](NC(=O)COc5ccc(C[C@H](NC(=O)CN6CCN(CC(=O)O)CCN(CC(=O)O)CCN(CC(=O)O)CC6)C(=O)O)cc5)C(=O)O)cc4)C(=O)O)cc3)nc2c(=O)[nH]1 [Compound 39, Pte-Lys(DOTA-(Tyr(O-carbonylmethyl)-OH)2)—OH]
0.49 +/− 0.16 | 17.3 +/− 4.9 | 84.4 +/− 10.4 | 1.64 +/− 0.62 | Nc1nc2ncc(CNc3ccc(C(=O)N[C@@H](CCCCNC(=O)C[C@H](NC(=O)[C@H](Cc4ccc5ccccc5c4)NC(=O)[C@H](Cc4ccc5ccccc5c4)NC(=O)CN4CCN(CC(=O)O)CCN(CC(=O)O)CCN(CC(=O)O)CC4)C(=O)O)C(=O)O)cc3)nc2c(=O)[nH]1 [Compound 42, Pte-Lys(β-Asp-2-Nal-2-Nal-DOTA)-OH]
0.58 +/− 0.10 | 13.0 +/− 3.7 | 70.2 +/− 6.7 | 1.57 +/− 0.53 | Nc1nc2ncc(CNc3ccc(C(=O)N[C@@H](CCCCNC(=O)C[C@H](NC(=O)[C@H](Cc4ccc(Br)cc4)NC(=O)CNC(=O)CN4CCN(CC(=O)O)CCN(CC(=O)O)CCN(CC(=O)O)CC4)C(=O)O)C(=O)O)cc3)nc2c(=O)[nH]1 [Compound 43, Pte-Lys(β-Asp-4-Br-Phe-Gly-DOTA)-OH]
0.59 +/− 0.12 | 28.8 +/− 2.9 | 83.1 +/− 17.3 | 0.59 +/− 0.16 | CSCC[C@H](NC(=S)Nc1ccc(CC2CN(CC(=O)O)CCN(CC(=O)O)CCN(CC(=O)O)CCN2CC(=O)O)cc1)C(=O)N[C@H](C(=O)N[C@@H](CCCCN1C(=O)CC(SC[C@@H](NC(=O)[C@H](CC(=O)O)NC(=O)[C@H](CC(=O)O)NC(=O)[C@H](CCCNC(=N)N)NC(=O)[C@H](CC(=O)O)NC(=O)CC[C@H](NC(=O)c2ccc(NCc3cnc4nc(N)[nH]c(=O)c4n3)cc2)C(=O)O)C(=O)O)C1=O)C(=O)O)C(C)C (stereo partly drawn) [Compound 58, DOTA-Bn-NHC(S)NH-Met-Val-Lys(Mal-S-Cys-Asp-Asp-Arg-Asp-Folate)-OH]
0.27 +/− 0.03 | 8.6 +/− 3.9 | 40.3 +/− 18.7 | 1.05 +/− 0.28 | Nc1nc2ncc(CNc3ccc(C(=O)N[C@@H](Cc4ccc(OCC(=O)NCCNC(=O)CN5CCN(CC(=O)O)CCN(CC(=O)O)CCN(CC(=O)O)CC5)cc4)C(=O)O)cc3)nc2c(=O)[nH]1 [Compound 61, Pte-Tyr(OCH2CO-EDA-DOTA)-OH]
0.38 +/− 0.07 | 14.6 +/− 2.0 | 85.5 +/− 7.7 | 1.48 +/− 0.51 | Nc1nc2ncc(CNc3ccc(C(=O)N[C@@H](Cc4ccc(OCCNC(=O)CN5CCN(CC(=O)O)CCN(CC(=O)O)CCN(CC(=O)O)CC5)cc4)C(=O)O)cc3)nc2c(=O)[nH]1 [Compound 64, Pte-Tyr(OCH2CH2—NH-DOTA)-OH]
